# Reference: patent publication US7723368B2, “Amino-5-[4-(difluoromethoxy)phenyl]-5-phenylimidazolone compounds for the inhibition of beta-secretase” (Wyeth LLC, priority 2007, dated 2010)
# Experiments:
# human BACE1 = human BACE1 (Homo sapiens, UniProt P56817); experiment: BACE1 fluorescent kinetic assay (cleavage of peptide substrate WABC-6); type: biochemical; settings: Activity Table, Examples 1-108; 10 nM enzyme, 25 μM substrate WABC-6, pH 4.5, room temperature
# Procedure: Evaluation of BACE1 Binding Affinity of Test Compounds
# Fluorescent Kinetic Assays
# Dilution and mixing steps: total reaction volume: 100 μL
# 100 μM substrate dilution in 1×PBS was prepared, and
# Fluorescence Readings: Readings at λex 320 nm and λem 420 nm are taken every 40 sec for 30 min at room temperature and the linear slope for substrate cleavage rate (vi) determined.
# Sequence of human BACE1 (P56817 46-501): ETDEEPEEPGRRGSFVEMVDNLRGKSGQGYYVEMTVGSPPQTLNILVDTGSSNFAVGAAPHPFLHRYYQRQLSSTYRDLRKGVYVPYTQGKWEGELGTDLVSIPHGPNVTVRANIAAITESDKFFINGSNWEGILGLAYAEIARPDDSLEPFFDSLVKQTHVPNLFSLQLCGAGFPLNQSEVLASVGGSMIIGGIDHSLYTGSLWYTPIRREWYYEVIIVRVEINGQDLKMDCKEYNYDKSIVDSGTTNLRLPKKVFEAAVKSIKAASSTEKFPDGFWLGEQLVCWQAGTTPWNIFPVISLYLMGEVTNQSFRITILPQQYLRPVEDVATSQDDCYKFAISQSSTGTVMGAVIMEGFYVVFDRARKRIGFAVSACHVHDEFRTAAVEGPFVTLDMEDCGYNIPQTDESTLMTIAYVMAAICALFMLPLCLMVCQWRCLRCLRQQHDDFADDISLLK
IC50 (human BACE1),melting point,Compound
< 100 nM,161 to 162 °C,"CN1C(=O)C(c2ccc(OC(F)F)cc2)(c2cccc(OCCCF)c2)N=C1N (stereo not shown) [Example 82, 2-Amino-5-[4-(difluoromethoxy)phenyl]-5-[3-(3-fluoropropox-1-yl)phenyl]-3-methyl-3,5-dihydro-4H-imidazol-4-one]"
< 100 nM,65 °C,"CN1C(=O)C(c2ccc(OC(F)F)cc2)(c2cccc(CCCCC#N)c2)N=C1N (stereo not shown) [Example 83, 5-(3-{2-Amino-4-[4-(difluoromethoxy)phenyl]-1-methyl-5-oxo-4,5-dihydro-1H-imidazol-4-yl}phenyl)pentanenitrile]"

# Continued, compound first:
Compound,IC50 (human BACE1),melting point
"CN1C(=O)C(c2ccc(OC(F)F)cc2)(c2ccc(F)c(CF)c2)N=C1N (stereo not shown) [Example 17, 2-Amino-5-(4-difluoromethoxy-phenyl)-5-(4-fluoro-3-fluoromethyl-phenyl)-3-methyl-3,5-dihydro-imidazol-4-one]",110 to 1000 nM,70 to 73 °C
"Cc1ccccc1C1(c2ccc(OC(F)F)cc2)N=C(N)N(C)C1=O (stereo not shown) [Example 18, 2-Amino-5-(4-difluoromethoxy-phenyl)-3-methyl-5-o-tolyl-3,5-dihydro-imidazol-4-one]",> 1000 nM,85 to 90 °C
"C=CCC(F)c1cccc(C2(c3ccc(OC(F)F)cc3)N=C(N)N(C)C2=O)c1 (stereo not shown) [Example 57, 2-amino-5-[4-(difluoromethoxy)phenyl]-5-[3-(1-fluorobut-3-en-1-yl)phenyl]-3-methyl-3,5-dihydro-4H-imidazol-4-one]",110 to 1000 nM,49 to 51 °C
